In patent publication US20230167088A1, “1-PYRAZINYLPYRAZOLYL-3-OXYALKYL ACIDS AND THEIR DERIVATIVES, AND THEIR USE FOR CONTROL OF UNDESIRED PLANT GROWTH” (BAYER AKTIENGESELLSCHAFT, priority 2020, published 2023):

Assays:
[1] = tested on: POAAN; test: Herbicidal post-emergence action 1b (twin sowing, 1280 g/ha); assay type: in vivo, Poa annua; details: dosage 1280 g/ha, visual rating about 3 weeks after treatment
Method in brief: (§1)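 Visual % activity vs untreated controls, ~3 wk after treatment (100% = dead, 0% = like control). Plants: one mono- plus one dicot weed species per pot, sandy loam, greenhouse; sprayed at one-leaf stage (2–3 wk post-sowing). Aqueous WP/EC, 0.5% additive, 600 L/ha water.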

[2] = tested on: ABUTH; test: as above; assay type: in vivo, Abutilon theophrasti; details: dosage 1280 g/ha, visual rating about 3 weeks after treatment
Protocol: (§2) [table] b) Seeds of mono- and dicotyledonous weed plants are placed in plastic pots in sandy loam soil (twin sowing with one species each of mono- or dicotyledonous weed plants per pot), covered with soil and cultivated in a greenhouse under controlled growth conditions. 2 to 3 weeks after sowing, the test plants are treated at the one-leaf stage. The compounds of the invention, formulated in the form of wettable powders (WP) or as emulsion concentrates (EC), are applied to the green parts of the plants as aqueous suspension or emulsion with addition of 0.5% additive at a water application rate equivalent to 600 litres per hectare. After the test plants have been kept in the greenhouse under optimum growth conditions for about 3 weeks, the activity of the preparations is rated visually in comparison to untreated controls. For example, 100% activity=the plants have died, 0% activity=like control plants. Tables A16 to A21 below show the effects of selected compounds of the general formula (I) according to Tables 1 and 2 on various harmful plants and at an application rate corresponding to 1280 g/ha, which were obtained by the experimental procedure mentioned above.

[3] = tested on: POAAN; test: Herbicidal pre-emergence action 2b (doubly sown, 1280 g/ha); assay type: in vivo, Poa annua; details: doubly sown pots, dosage 1280 g/ha, visual scoring after about 3 weeks
Method in brief: (§3)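 Pre-emergence soil-surface spray (WP/EC formulation, 0.5% additive, 600 L/ha water) onto covered seeds in sandy loam, doubly sown per pot. Greenhouse ~3 wk; % effect scored visually against untreated pots.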

[4] = tested on: DIGSA; test: as above; assay type: in vivo, Digitaria sanguinalis; details: doubly sown pots, dosage 1280 g/ha, visual scoring after about 3 weeks
Method in brief: as §3

[5] = tested on: AMARE; test: as above; assay type: in vivo, Amaranthus retroflexus; details: doubly sown pots, dosage 1280 g/ha, visual scoring after about 3 weeks
Method in brief: as §3

[6] = tested on: STEME; test: as above; assay type: in vivo, Stellaria media; details: doubly sown pots, dosage 1280 g/ha, visual scoring after about 3 weeks
Method in brief: as §3

[7] = tested on: DIGSA; test: Herbicidal post-emergence action 1b (twin sowing, 1280 g/ha); assay type: in vivo, Digitaria sanguinalis; details: dosage 1280 g/ha, visual rating about 3 weeks after treatment
Protocol: as §2

[8] = tested on: ECHCG; test: as above; assay type: in vivo, Echinochloa crus-galli; details: dosage 1280 g/ha, visual rating about 3 weeks after treatment
Protocol: as §2

[9] = tested on: STEME; test: as above; assay type: in vivo, Stellaria media; details: dosage 1280 g/ha, visual rating about 3 weeks after treatment
Protocol: as §2

[10] = tested on: ECHCG; test: Herbicidal pre-emergence action 2b (doubly sown, 1280 g/ha); assay type: in vivo, Echinochloa crus-galli; details: doubly sown pots, dosage 1280 g/ha, visual scoring after about 3 weeks
Method in brief: as §3

[11] = tested on: MATIN; test: as above; assay type: in vivo, Matricaria inodora; details: doubly sown pots, dosage 1280 g/ha, visual scoring after about 3 weeks
Method in brief: as §3

[12] = tested on: ALOMY; test: Herbicidal post-emergence action 1a (greenhouse pots, visual rating); assay type: in vivo, Alopecurus myosuroides; details: Dosage 80 g/ha; rated visually about 3 weeks after treatment; 100% = plants have died, 0% = like control plants
Method in brief: (§4)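 Visual scoring versus untreated plants (100% = plants dead, 0% = as control) followed roughly 3 weeks in the greenhouse after treatment. Plants grown in sandy loam pots had been sprayed on green parts at the one-leaf stage, 2–3 weeks post-sowing, with aqueous WP/EC preparations containing 0.5% additive, 600 l/ha, at 320 and/or 80 g/ha.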

[13] = tested on: AVEFA; test: as above; assay type: in vivo, Avena fatua; details: Dosage 80 g/ha; rated visually about 3 weeks after treatment; 100% = plants have died, 0% = like control plants
Method in brief: as §4

[14] = tested on: AMARE; test: as above; assay type: in vivo, Amaranthus retroflexus; details: dosage 80 g/ha, visual rating about 3 weeks after treatment
Method in brief: as §4

[15] = tested on: MATIN; test: Herbicidal post-emergence action 1b (twin sowing, 1280 g/ha); assay type: in vivo, Matricaria inodora; details: dosage 1280 g/ha, visual rating about 3 weeks after treatment
Method in brief: as §1

[16] = tested on: ALOMY; test: Herbicidal pre-emergence action 2a (greenhouse pots, visual scoring); assay type: in vivo, Alopecurus myosuroides; details: dosage 320 g/ha, visual scoring after about 3 weeks
Method in brief: (§5)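 Dose levels were 320 g/ha and/or 80 g/ha, delivered as an aqueous spray of wettable powder or emulsion concentrate plus 0.5% additive onto soil over sown seeds. Plants grew under good greenhouse conditions for about 3 weeks before visual percentage rating versus untreated pots.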

[17] = tested on: AVEFA; test: as above; assay type: in vivo, Avena fatua; details: dosage 320 g/ha, visual scoring after about 3 weeks
Method in brief: as §5

[18] = tested on: LOLRI; test: as above; assay type: in vivo, Lolium rigidum; details: dosage 320 g/ha, visual scoring after about 3 weeks vs untreated controls
Method in brief: as §5

[19] = tested on: AMARE; test: as above; assay type: in vivo, Amaranthus retroflexus; details: dosage 320 g/ha, visual scoring after about 3 weeks vs untreated controls
Method in brief: as §5

[20] = tested on: POLCO; test: as above; assay type: in vivo, Polygonum convolvulus; details: dosage 320 g/ha, visual scoring after about 3 weeks vs untreated controls
Method in brief: as §5

[21] = tested on: VIOTR; test: as above; assay type: in vivo, Viola tricolor; details: dosage 320 g/ha, visual scoring after about 3 weeks vs untreated controls
Excerpt: [table] a) Seeds of monocotyledonous and dicotyledonous weed plants and crop plants are placed in plastic or organic plant pots and covered with soil. The compounds of the invention, formulated in the form of wettable powders (WP) or as emulsion concentrates (EC), are then applied onto the surface of the covering soil as aqueous suspension or emulsion with addition of 0.5% additive at a water application rate of 600 1/ha (converted). After the treatment, the pots are placed in a greenhouse and kept under good growth conditions for the trial plants. After about 3 weeks, the effect of the preparations is scored visually in comparison with untreated controls as percentages. For example, 100% activity=the plants have died, 0% activity=like control plants. Tables B1 to B15 below show the effects of selected compounds of the general formula (I) according to Tables 1 and 2 on various harmful plants and an application rate corresponding to 320 g/ha and/or 80 g/ha, which were obtained by the experimental procedure mentioned above.

[22] = tested on: VERPE; test: as above; assay type: in vivo, Veronica persica; details: dosage 320 g/ha, visual scoring after about 3 weeks vs untreated controls
Method in brief: as §5

| Structure (SMILES) | Post-emergence action at 1280 g/ha against POAAN in % [1] [%] | Post-emergence action at 1280 g/ha against ABUTH in % [2] [%] | Pre-emergence action at 1280 g/ha against POAAN in % [3] [%] | Pre-emergence action at 1280 g/ha against DIGSA in % [4] [%] | Pre-emergence action at 1280 g/ha against AMARE in % [5] [%] | Pre-emergence action at 1280 g/ha against STEME in % [6] [%] | Post-emergence action at 1280 g/ha against DIGSA in % [7] [%] | Post-emergence action at 1280 g/ha against ECHCG in % [8] [%] | Post-emergence action at 1280 g/ha against STEME in % [9] [%] | Pre-emergence action at 1280 g/ha against ECHCG in % [10] [%] | Pre-emergence action at 1280 g/ha against MATIN in % [11] [%] | Post-emergence action at 1280 g/ha against MATIN in % [15] [%] | also measured |
| --- | --- | --- | --- | --- | --- | --- | --- | --- | --- | --- | --- | --- | --- |
| CC(Oc1nn(-c2cnccn2)c(-c2ccc(F)nc2)c1Br)C(=O)O (racemic) [Example I-24] | 100 | 90 | 100 | 100 | 90 | 90 | – | – | – | – | – | – | – |
| COC(=O)[C@@H](C)Oc1nn(-c2cnccn2)c(-c2cncnc2)c1Br [Example I-30] | 100 | 90 | 100 | 100 | 100 | 100 | 100 | 90 | 90 | 100 | 90 | – | – |
| COC(=O)[C@@H](C)Oc1nn(-c2nccnc2Cl)c(-c2ccc(F)nc2)c1Br [Example I-72] | 100 | – | 100 | 100 | 100 | 100 | 100 | 100 | 90 | 100 | 100 | 100 | Post-emergence action against ALOMY in % [12]: 90%; Post-emergence action against AVEFA in % [13]: 90%; Post-emergence action against AMARE in % [14]: 80%; Pre-emergence action against ALOMY in % [16]: 90%; Pre-emergence action against AVEFA in % [17]: 80%; Pre-emergence action against LOLRI in % [18]: 100%; Pre-emergence action against AMARE in % [19]: 100%; Pre-emergence action against POLCO in % [20]: 90%; Pre-emergence action against VIOTR in % [21]: 90%; Pre-emergence action against VERPE in % [22]: 80% |
| COC(=O)[C@@H](C)Oc1nn(-c2cnccn2)c(-c2cccnc2)c1Br [Example I-38] | 100 | – | 100 | 100 | 100 | 100 | 90 | 100 | 100 | 100 | 100 | 90 | – |
